For one compound, inhibition results are on record in patent publication US11572590B2, “Methods for evaluating tumor cell spheroids using 3D microfluidic cell culture device” (Dana-Farber Cancer Institute, Inc., priority 2017, dated 2023).

Experiment [1] addresses T1, off-target kinases (Homo sapiens, UniProt P54762).
T1 sequence (P54762 18-984): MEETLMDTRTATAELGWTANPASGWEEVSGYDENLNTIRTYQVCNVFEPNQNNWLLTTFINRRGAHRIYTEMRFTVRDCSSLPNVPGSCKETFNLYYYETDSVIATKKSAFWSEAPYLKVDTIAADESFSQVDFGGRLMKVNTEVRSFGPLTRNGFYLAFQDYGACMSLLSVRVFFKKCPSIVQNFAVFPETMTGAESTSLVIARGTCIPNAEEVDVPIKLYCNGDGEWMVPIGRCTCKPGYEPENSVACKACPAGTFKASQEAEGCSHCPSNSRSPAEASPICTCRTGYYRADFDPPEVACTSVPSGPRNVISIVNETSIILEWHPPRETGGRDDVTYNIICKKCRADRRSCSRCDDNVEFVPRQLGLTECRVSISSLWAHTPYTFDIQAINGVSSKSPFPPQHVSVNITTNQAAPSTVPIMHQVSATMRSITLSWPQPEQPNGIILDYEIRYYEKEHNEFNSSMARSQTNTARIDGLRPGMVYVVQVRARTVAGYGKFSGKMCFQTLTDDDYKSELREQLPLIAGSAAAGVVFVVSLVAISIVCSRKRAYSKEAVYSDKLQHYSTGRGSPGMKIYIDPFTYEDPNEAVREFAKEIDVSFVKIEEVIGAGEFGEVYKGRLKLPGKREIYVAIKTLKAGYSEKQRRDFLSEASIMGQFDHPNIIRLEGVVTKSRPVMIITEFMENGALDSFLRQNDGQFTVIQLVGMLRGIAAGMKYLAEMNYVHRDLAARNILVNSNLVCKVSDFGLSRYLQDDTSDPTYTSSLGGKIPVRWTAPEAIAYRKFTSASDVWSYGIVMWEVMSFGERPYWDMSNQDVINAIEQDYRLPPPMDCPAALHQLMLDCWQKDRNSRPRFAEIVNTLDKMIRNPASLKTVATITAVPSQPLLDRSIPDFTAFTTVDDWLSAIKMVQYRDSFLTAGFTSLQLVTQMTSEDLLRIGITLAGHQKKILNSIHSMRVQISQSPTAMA
As to the kind of experiment: SelectScreen Kinase Profiling, single point inhibition and IC50 for off-target kinases. Type of experiment: biochemical. The settings on record: EPHB1, ZLYTE, ATP Km app.

In experiment [2] the target is T2, off-target kinases (Homo sapiens, UniProt P54760).
T2 sequence (P54760 16-987): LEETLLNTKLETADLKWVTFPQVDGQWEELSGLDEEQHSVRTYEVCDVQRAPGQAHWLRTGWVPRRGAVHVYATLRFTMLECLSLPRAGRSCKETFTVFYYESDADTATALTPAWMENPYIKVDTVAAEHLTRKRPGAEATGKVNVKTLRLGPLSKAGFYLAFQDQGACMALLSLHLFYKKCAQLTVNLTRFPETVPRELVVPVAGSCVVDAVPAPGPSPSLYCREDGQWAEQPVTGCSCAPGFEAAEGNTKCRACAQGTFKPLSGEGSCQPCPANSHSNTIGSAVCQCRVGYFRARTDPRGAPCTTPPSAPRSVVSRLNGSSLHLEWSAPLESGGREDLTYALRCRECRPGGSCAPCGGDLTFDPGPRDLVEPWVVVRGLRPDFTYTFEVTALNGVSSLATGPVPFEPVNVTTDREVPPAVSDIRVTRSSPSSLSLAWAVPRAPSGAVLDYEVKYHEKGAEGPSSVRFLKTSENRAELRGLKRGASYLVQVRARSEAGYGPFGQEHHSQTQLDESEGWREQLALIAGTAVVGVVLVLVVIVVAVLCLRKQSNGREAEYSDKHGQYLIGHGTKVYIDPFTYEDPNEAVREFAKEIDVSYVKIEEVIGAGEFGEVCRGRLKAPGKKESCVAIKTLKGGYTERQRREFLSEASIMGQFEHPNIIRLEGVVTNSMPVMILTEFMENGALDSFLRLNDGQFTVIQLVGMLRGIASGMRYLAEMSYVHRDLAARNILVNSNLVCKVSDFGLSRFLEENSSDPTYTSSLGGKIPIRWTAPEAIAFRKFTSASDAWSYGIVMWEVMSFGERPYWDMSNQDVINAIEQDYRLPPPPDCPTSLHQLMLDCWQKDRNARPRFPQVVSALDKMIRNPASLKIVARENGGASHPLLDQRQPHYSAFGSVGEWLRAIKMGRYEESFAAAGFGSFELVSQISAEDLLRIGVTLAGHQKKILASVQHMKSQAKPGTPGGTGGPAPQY
The description is as above. Type of experiment: biochemical. Conditions: EPHB4, ZLYTE, ATP Km app.

Like-named read-outs stand apart in the source and are kept apart here.

The inhibition is the percentage by which the read-out fell short of the control. On to `N#Cc1cc(-c2ncnc(Nc3ccc(N4CCN(C5COC5)CC4)cc3)n2)ccc1OC1CCOCC1` [Compound 1, 5-(4-((4-(4-(oxetan-3-yl)piperazin-1-yl)phenyl)amino)-1,3,5-triazin-2-yl)-2-((tetrahydro-2H-pyran-4-yl)oxy)benzonitrile], for which the inhibition was determined as 34% in experiment [1] (read-out: % Inhibition 1); 31% in experiment [1] (read-out: % Inhibition 2); 33% in experiment [1] (read-out: % Inhibition Avg); 15% in experiment [2] (read-out: % Inhibition 1); 14% in experiment [2] (read-out: % Inhibition 2); 15% in experiment [2] (read-out: % Inhibition Avg).
